Consider one compound from patent EP2167084B1, “AN ALLERGEN DOSAGE FORM COMPRISING AN ANTIHISTAMINE” (ALK-Abelló A/S, priority 2007, dated 2008).

The nature of this assay: Cross-over, single-centre investigation of the effect of desloratidine on local adverse effects caused by Phleum pratense pollen extract (Grazax). It is filed as in vivo, patients. The conditions noted are these: 2.5 mg, half the daily dose for a person above 12 years of age, given with Grazax.

Structures are written as SMILES.

Source text: Investigation of the effect of desloratidine on adverse effects such itching in or around the mouth and the lips, ithching throat, itching in the ears and eyes caused by Phleum pratense pollen extract
The study was is was a cross-over, single-centre investigation.
The patients participated on two single days (visit 1 and visit 2) separated by approximately two weeks to avoid development of tolerance due to Grazax treatment. The subjects received one Grazax 75,000 SQ-T on Visit 1 and if they reported treatment related local adverse events in the mouth and/or throat after intake they were eligible for Visit 2. If no treatment related adverse events were reported after Grazax intake on Visit 1 the subjects were excluded from the study. On visit 2, the subjects received 1 antihistamine (Aerius (Desloratadine) melting tablet 2.5 mg, i.e. orally-disintegrating tablet). Grazax was administered immediately after intake of antihistamine.
AEs were reported on AE pages. AEs were rated mild, moderate or severe. Furthermore, the subjects rated the AE severity on a Visual Analogue Scale (VAS). The AEs of interest were itching mouth, itching throat or other local reactions.
A total of 15 subjects attended visit 1. […] These were therefore eligible for visit 2. Key selection criteria were: • 1. […]

For the compound `Clc1ccc2c(c1)CCc1cccnc1C2=C1CCNCC1` [desloratidine], the “relief from the itching of the mouth and pharynx” value is “sufficient to relieve most patients”.
